Measurements reported in patent US7763728B2, “Tetrahydropyridothiophenes” (4SC AG, priority 2005, dated 2010).

Legend:
[1] = test system: RKO (RKOp27) human colon adenocarcinoma cells; assay: Alamar Blue cell viability assay, anti-proliferative/cytotoxic activity on proliferating (uninduced) RKOp27 cells; type: cell-based; details: 72 hours incubation, absence of the inducer Ponasterone A, read-out: IC50 RKO p27 uninduced (proliferating)
Procedure, shortened: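 RKOp27 subclones seeded at 5000 cells/well, compounds added after 24 h in DMEM/10% FCS, quadruplicates, 72 h at 37 °C, 5% CO2. Alamar Blue fluorescence (ex 544/em 590 nm) normalised to untreated cells (1% DMSO medium) as 100%; IC50 from concentration-effect curves.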

[2] = test system: RKO colon adenocarcinoma cells (RKOp27) arrested by the expression of ectopic p27Kip1; assay: Alamar Blue cell viability assay on RKOp27 cells arrested by p27Kip1 expression induced by Ponasterone A; type: cell-based; details: Homo sapiens, 72 hours incubation, 10 μM Ponasterone A, read-out: IC50 RKO p27 induced (arrested)
Procedure, shortened: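 RKOp27 cells, 15000/well, held in DMEM with 10% FCS and with or without 10 μM Ponasterone A to induce p27Kip1 arrest. Compound dilutions added 24 h after seeding, then 72 h at 37 °C in quadruplicate. Alamar Blue fluorescence (544/590 nm) gave % viability relative to untreated cells.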

IC50 [2] | Structure (SMILES) | IC50 [1]
≥ 10000 nM | COc1ccc(C)cc1CCC(=O)Nc1sc2c(c1C#N)CCN(C(=O)CCc1nccn1C)C2 [Example 118, N-{3-Cyano-6-[3-(1-methyl-1H-imidazol-2-yl)-propanoyl]-4,5,6,7-tetrahydro-thieno[2,3-c]pyridin-2-yl}-3-(2-methoxy-5-methyl-phenyl)-propionamide] | 300 to 2000 nM
≥ 10000 nM | CCOc1ccccc1CCC(=O)Nc1sc2c(c1C#N)CCN(C(=O)CCc1ccncc1)C2 [Example 123] | ≤ 300 nM
≥ 40000 nM | COc1ccccc1CCC(=O)Nc1sc2c(c1C#N)CCN(C(=O)Cn1ccnc1C)C2 [Example 130, N-{3-Cyano-6-[2-(2-methyl-imidazol-1-yl)-ethanoyl]-4,5,6,7-tetrahydro-thieno[2,3-c]pyridin-2-yl}-3-(2-methoxy-phenyl)-propionamide] | ≤ 300 nM
≥ 40000 nM | CCOc1ccccc1CCC(=O)Nc1sc2c(c1C#N)CCN(C(=O)Cn1ccnc1C)C2 [Example 131, N-{3-Cyano-6-[2-(2-methyl-imidazol-1-yl)-ethanoyl]-4,5,6,7-tetrahydro-thieno[2,3-c]pyridin-2-yl}-3-(2-ethoxy-phenyl)-propionamide] | ≤ 300 nM
≥ 10000 nM | COc1ccccc1CCC(=O)Nc1sc2c(c1C#N)CCN(C(=O)Cn1cc(C)nc1C)C2 [Example 147, N-{3-Cyano-6-[2-(2,4-dimethyl-imidazol-1-yl)-ethanoyl]-4,5,6,7-tetrahydro-thieno[2,3-c]pyridin-2-yl}-3-(2-methoxy-phenyl)-propionamide] | ≤ 300 nM
≥ 10000 nM | COc1ccc(C)cc1CCC(=O)Nc1sc2c(c1C#N)CCN(C(=O)Cn1cc(C)nc1C)C2 [Example 149, N-{3-Cyano-6-[2-(2,4-dimethyl-imidazol-1-yl)-ethanoyl]-4,5,6,7-tetrahydro-thieno[2,3-c]pyridin-2-yl}-3-(2-methoxy-5-methyl-phenyl)-propionamide] | 300 to 2000 nM
≥ 10000 nM | COc1cccc(CCC(=O)Nc2sc3c(c2C#N)CCN(C(=O)CCn2cnc(C)c2)C3)c1 [Example 154, N-{3-Cyano-6-[3-(4-methyl-imidazol-1-yl)-propanoyl]-4,5,6,7-tetrahydro-thieno[2,3-c]pyridin-2-yl}-3-(3-methoxy-phenyl)-propionamide] | 300 to 2000 nM

Further lines, the compound ahead of its results:

Structure (SMILES) | IC50 [2] | IC50 [1]
COc1ccccc1CCC(=O)Nc1sc2c(c1C#N)CCN(C(=O)CCc1ccncc1)C2 [Example 122, N-[3-Cyano-6-(3-pyridin-4-yl-propanoyl)-4,5,6,7-tetrahydro-thieno[2,3-c]pyridin-2-yl]-3-(2-methoxy-phenyl)-propionamide] | > 100000 nM | ≤ 300 nM
COc1ccc(C)cc1CCC(=O)Nc1sc2c(c1C#N)CCN(C(=O)CCc1ccncc1)C2 [Example 124, N-[3-Cyano-6-(3-pyridin-4-yl-propanoyl)-4,5,6,7-tetrahydro-thieno[2,3-c]pyridin-2-yl]-3-(2-methoxy-5-methyl-phenyl)-propionamide] | ≥ 10000 nM | 300 to 2000 nM
COc1cccc(CCC(=O)Nc2sc3c(c2C#N)CCN(C(=O)Cn2ccnc2C)C3)c1 [Example 129, N-{3-Cyano-6-[2-(2-methyl-imidazol-1-yl)-ethanoyl]-4,5,6,7-tetrahydro-thieno[2,3-c]pyridin-2-yl}-3-(3-methoxy-phenyl)-propionamide] | ≥ 40000 nM | 300 to 2000 nM
COc1ccc(C)cc1CCC(=O)Nc1sc2c(c1C#N)CCN(C(=O)Cn1ccnc1C)C2 [Example 132, N-{3-Cyano-6-[2-(2-methyl-imidazol-1-yl)-ethanoyl]-4,5,6,7-tetrahydro-thieno[2,3-c]pyridin-2-yl}-3-(2-methoxy-5-methyl-phenyl)-propionamide] | ≥ 40000 nM | ≤ 300 nM
COc1cccc(CCC(=O)Nc2sc3c(c2C#N)CCN(C(=O)Cn2cnc(C)c2)C3)c1 [Example 138, N-{3-Cyano-6-[2-(4-methyl-imidazol-1-yl)-ethanoyl]-4,5,6,7-tetrahydro-thieno[2,3-c]pyridin-2-yl}-3-(3-methoxy-phenyl)-propionamide] | ≥ 40000 nM | 300 to 2000 nM
COc1ccccc1CCC(=O)Nc1sc2c(c1C#N)CCN(C(=O)Cn1cnc(C)c1)C2 [Example 139, N-{3-Cyano-6-[2-(4-methyl-imidazol-1-yl)-ethanoyl]-4,5,6,7-tetrahydro-thieno[2,3-c]pyridin-2-yl}-3-(2-methoxy-phenyl)-propionamide] | ≥ 40000 nM | ≤ 300 nM
CCOc1ccccc1CCC(=O)Nc1sc2c(c1C#N)CCN(C(=O)Cn1cnc(C)c1)C2 [Example 140, N-{3-Cyano-6-[2-(4-methyl-imidazol-1-yl)-ethanoyl]-4,5,6,7-tetrahydro-thieno[2,3-c]pyridin-2-yl}-3-(2-ethoxy-phenyl)-propionamide] | ≥ 40000 nM | ≤ 300 nM
COc1ccc(C)cc1CCC(=O)Nc1sc2c(c1C#N)CCN(C(=O)Cn1cnc(C)c1)C2 [Example 141, N-{3-Cyano-6-[2-(4-methyl-imidazol-1-yl)-ethanoyl]-4,5,6,7-tetrahydro-thieno[2,3-c]pyridin-2-yl}-3-(2-methoxy-5-methyl-phenyl)-propionamide] | ≥ 40000 nM | 300 to 2000 nM
CCOc1ccccc1CCC(=O)Nc1sc2c(c1C#N)CCN(C(=O)Cn1cc(C)nc1C)C2 [Example 148, N-{3-Cyano-6-[2-(2,4-dimethyl-imidazol-1-yl)-ethanoyl]-4,5,6,7-tetrahydro-thieno[2,3-c]pyridin-2-yl}-3-(2-ethoxy-phenyl)-propionamide] | ≥ 10000 nM | ≤ 300 nM
COc1ccccc1CCC(=O)Nc1sc2c(c1C#N)CCN(C(=O)CCn1cnc(C)c1)C2 [Example 155, N-{3-Cyano-6-[3-(4-methyl-imidazol-1-yl)-propanoyl]-4,5,6,7-tetrahydro-thieno[2,3-c]pyridin-2-yl}-3-(2-methoxy-phenyl)-propionamide] | ≥ 10000 nM | 300 to 2000 nM
CCOc1ccccc1CCC(=O)Nc1sc2c(c1C#N)CCN(C(=O)CCn1cnc(C)c1)C2 [Example 156, N-{3-Cyano-6-[3-(4-methyl-imidazol-1-yl)-propanoyl]-4,5,6,7-tetrahydro-thieno[2,3-c]pyridin-2-yl}-3-(2-ethoxy-phenyl)-propionamide] | ≥ 10000 nM | ≤ 300 nM
COc1ccc(C)cc1CCC(=O)Nc1sc2c(c1C#N)CCN(C(=O)CCn1cnc(C)c1)C2 [Example 157, N-{3-Cyano-6-[3-(4-methyl-imidazol-1-yl)-propanoyl]-4,5,6,7-tetrahydro-thieno[2,3-c]pyridin-2-yl}-3-(2-methoxy-5-methyl-phenyl)-propionamide] | ≥ 10000 nM | 300 to 2000 nM
COc1ccccc1CCC(=O)Nc1sc2c(c1C#N)CCN(C(=O)CCn1cc(C)nc1C)C2 [Example 161, N-{3-Cyano-6-[3-(2,4-dimethyl-imidazol-1-yl)-propanoyl]-4,5,6,7-tetrahydro-thieno[2,3-c]pyridin-2-yl}-3-(2-methoxy-phenyl)-propionamide] | ≥ 10000 nM | 300 to 2000 nM
CCOc1ccccc1CCC(=O)Nc1sc2c(c1C#N)CCN(C(=O)CCn1cc(C)nc1C)C2 [Example 162, N-{3-Cyano-6-[3-(2,4-dimethyl-imidazol-1-yl)-propanoyl]-4,5,6,7-tetrahydro-thieno[2,3-c]pyridin-2-yl}-3-(2-ethoxy-phenyl)-propionamide] | ≥ 10000 nM | 300 to 2000 nM
COc1ccc(C)cc1CCC(=O)Nc1sc2c(c1C#N)CCN(C(=O)CCn1cc(C)nc1C)C2 [Example 163, N-{3-Cyano-6-[3-(2,4-dimethyl-imidazol-1-yl)-propanoyl]-4,5,6,7-tetrahydro-thieno[2,3-c]pyridin-2-yl}-3-(2-methoxy-5-methyl-phenyl)-propionamide] | ≥ 10000 nM | 300 to 2000 nM
